{"source": "patent US6811993B2", "about": "“Diagnostic and screening methods based on monocyte PKC activity” (Joslin Diabetes Center, Inc., priority 2000, dated 2004)", "system": "PKC", "test": "PKC activity in mononuclear cells of STZ-induced diabetic rats after treatment", "assay_type": "in vivo, rat", "conditions": "male Sprague-Dawley rats, STZ-induced diabetes (56% increase vs control), insulin pellet inserted subcutaneously, after 2 weeks", "description": "Monocytes of rats and also human control subjects and patients with diabetes were isolated from blood with anticoagulant of sodium citrate. The blood sample was put onto the same volume of Histopaque-1077 (Sigma) and centrifuged at 400×g for 30 minutes at room temperature. The layer containing mononuclear cells was transferred to a new tube and washed with phosphate-buffered saline (PBS). After centrifugation at 400×g for 10 minutes, cell pellet was suspended with a solution of 144 mM NH4Cl and 17 mM Tris-HCl, pH 7.65 to lyse the contaminated red blood cells. Mononuclear cells were washed with PBS and used in this study.\nMononuclear cells of human and rats and retina of rats were suspended in a buffer containing 137 mM NaCl, 4.3 mM KCl, […] Na2HPO4, 0.4 mM KH2PO4, 5.5 mM D-Glucose, 10 mM MgCl2, 1 mM CaCl2, 25 mM β-glycerophosphate, and 20 mM HEPES, pH 7.2. […] The paper was put into a scientillation vial and radioactivity of ^32p was assayed by scientillation counter. The paper was put into a scintillation vial and radioactivity of ^32p incorporated into substrate peptide per minute per mg of protein, and calculated by the difference between the activity in the presence of substrate peptide and the activity in the absence of the peptide.\nMale Sprague-Dawley rats at the age of 6 weeks were used in this study. […] PKC activity in these tissues was measured as described below."}
{"substance": "insulin", "values": [{"measurement": "PKC activity in rat mononuclear cells", "value": "restored to the level of control rats"}]}
